Experimental data: patent US10775391B2, “Nervous system-specific transmembrane proteasome complex that modulates neuronal signaling through extracellular signaling via brain activity peptides” (THE JOHNS HOPKINS UNIVERSITY, priority 2015, dated 2020)
Where a SMILES comes first, the peptide text is derived from it. The star is where a group is joined. Cbz = O=C(OCc1ccccc1)*

Legend:
[1] = target: T1, Neuronal Membrane Proteasome (NMP) (Mus musculus, UniProt O55234+P70195+Q60692); test: Release of 35S-radiolabeled peptides (SNAPPs) from cortical neurons into media, liquid scintillation; type: cell-based; details: baseline spontaneous activity
T1 construct: we believe that the endogenous NMP is catalytically active; endogenous in cells; host or cells: primary cultured cortical neurons from C57Bl/6 mouse embryos
Description: Cortical neurons were cultured for 12-18 days in vitro. Neurons were membrane depolarized with 55 mM extracellular KCl by addition of prewarmed depolarization buffer (55 mM KCl, 0.2 mM CaCl2, 1 mM MgCl2, 10 mM HEPES pH7.5) or a mock buffer (55 mM NaCl, final) in fresh neuronal growth media as previously described (Nature 455: 1198-1204 (2008)). Labeling was done in Neurobasal growth media with B27 supplement and without methionine or cysteine (Life Technologies, special order). ^35S methionine-cysteine (EasyTag PerkinElmer) was incorporated at 55 mCi in the cys/met free growth medium. Where indicated, MG132 (25 mM, Cell Signaling) and ATPγS (1 mM, Sigma) was added during the radioactive labeling window, 15 minutes prior to stimulation and was kept in for the duration of the stimulation.
For any chase experiment, free radioactivity was washed out with phosphate-buffered saline and replaced with fresh neuronal growth medium. […]
Quantification of SNAPPs was done by quantifying the amount of radioactivity in each sample by liquid scintillation (Wallac 1410). […]

[2] = test system: GCaMP3-transfected cultured cortical neurons; test: Calcium imaging of bicuculline-stimulated GCaMP3-transfected cortical neurons; type: cell-based, mouse; details: for amplitude of bicuculline-induced calcium transients: 1 μM bicuculline, biotin-epoxomicin 25 μM co-administered
Description: Bicuculline treatment was administered as a 1 μM stimulation in calcium imaging buffer in a perfusion setup. […] Each treatment was monitored for three minutes prior to washout. […] Cells were ensured to be healthy at the end of the imaging process by stimulating with 55 mM KCl and washing out and assessing for a proper calcium signal. Quantification was done by picking multiple regions of interests in primary and secondary dendrites across multiple coverslips over different imaging days. Data was analyzed using the Time Series Analyzer V3.0 ImageJ plugin and the ROI manager. Data were pooled for all the ROIs to generate a single N value. Brains from P0-P3 mouse pups (Cre GCaMP3; Nestin-Cre ER) were dissected and plated in Neurobasal-A with B-27 supplement for two weeks. At DIV7, 4-hydroxytamoxifen (4-HT, concentration) was added to induce GCaMP expression. Neurons were imaged in a calcium-imaging buffer (130 mM NaCl, 3 mM KCl, 2.5 mM CaCl2, 0.6 mM MgCl2, 10 mM Hepes, 10 mM glucose, 1.2 mM NaHCO3 pH 7.45). Peptides were collected, filtered, and dialyzed and then lyophilized prior to resuspension in 1 mL of MilliQ water and addition onto GCaMP-encoding neurons. […] Peptides treated with Proteinase K were spun through a 10 kDa MW cutoff filter prior to addition onto neurons in order to remove Proteinase K. Random peptide mixtures contained HIV-TAT, a polybasic peptide mixture, or a crude peptide prep.

NMP [3] = target: T2, NMP (Mus musculus, UniProt O55234+P70195+Q60692); test: Catalytic activity of purified NMP with fluorescent substrate SUC-LLVY-AMC; type: biochemical; details: low concentration (0.05% final), purified NMP in vitro
T2 construct: we purified NMPs from neuronal plasma membranes using a 20S purification matrix; endogenous in cells; host or cells: cultured neurons; detergent-extracted plasma membranes, isolated with the 20S proteasome purification kit (Enzo Life Sciences), assayed on beads
Description: In some embodiments, proteasome purification was performed as follows. Cells were treated and then immediately put on ice before purifications were performed as previously described (Methods Mol Biol 832, 423-432, 2012). Briefly, proteasomes were purified out of neuronal cytosol and detergent-extracted neuronal plasma membranes using the 20S proteasome purification kit (Enzo Life Sciences) or the 26S proteasome purification kit (UBPBio). For western blots, samples were denatured at 65° C. for 5 minutes in SDS sample buffer, resolved by SDS PAGE, transferred to nitrocellulose, and immunoblotted. For catalytic activity assays, ⅙th of the bead volume following proteasome purification was resuspended in activity assay buffer (20 mM Tris-HCl, pH8.0, 5 mM ATP, 5 mM MgCl2, 1 mM DTT). 26S proteasomal activity was assessed by the addition of 10 μM of SUC-LLVY-AMC (Enzo Life Sciences). The contribution of 20S proteasomal activity was assessed by the comparison of 26S proteasome activity to that of total proteasome activity (26S+20S), measured by the activity of samples containing SDS at a final concentration of 0.05%.

NMP [4] = test: NMP expression by surface biotinylation, streptavidin pulldown and western blot in treated cortical neurons; type: cell-based; details: DIV12 mouse neurons, 1 μM for 12 hours
Description: Surface biotin-labeling was performed as previously described (Nat Neurosci 12, 879-887 2009). Whole mouse brains, cultured cells or whole animal tissue were obtained where indicated and each sample was labeled using Sulfo-NHS-LC-Biotin (ThermoFisher). Cultured cells were washed in pH 8.0 PBS (Gibco) with 1 mM CaCl2 and 2 mM MgCl2 (PBSCM) and treated with 1 mg/mL Sulfo-NHS-LC-Biotin dissolved in PBSCM for 20 minutes at 4° C. before the reaction was quenched for 10 minutes in 50 mM glycine in PBSCM. Intact tissue was quickly and manually chopped, following biotinylation for only 10 minutes at 4° C. in 0.5 mg/mL Sulfo-NHS-LC-Biotin prior to quenching the reaction.
Primary, human central nervous system (CNS) tissue, gestational weeks 19-21, were obtained under surgical written consent following protocols approved by the Johns Hopkins Institutional Review Board, based on its designation as biological waste. Tissue was mechanically chopped at 4° C., and immediately processed for surface biotinylation. For streptavidin pulldown experiments lysed cells were incubated with high capacity streptavidin agarose beads overnight and then washed thrice with RIPA buffer before resuspension in SDS sample buffer.
For western blots, samples were boiled for 5 minutes in SDS sample buffer, resolved by SDS PAGE, transferred to nitrocellulose, and immunoblotted. […]

CC(C)C[C@@H](C=O)NC(=O)[C@H](CC(C)C)NC(=O)[C@H](CC(C)C)NC(=O)OCc1ccccc1 [MG-132] (Cbz-Leu-Leu-Leu-aldehyde)
peptide release under non-stimulating conditions [1]: inhibited | amplitude of bicuculline-induced calcium transients [2]: similar | neuronal activity-induced calcium signaling ([2]; acute addition onto neurons, within seconds): suppressed

CCCCCCCCCCCCOS(=O)(=O)[O-].[Na+] [SDS, sodium-dodecyl-sulfate]
catalytic activity of the NMP (NMP [3]): potently stimulated

Aβ1-42: Aβ1-42 peptide used to treat mouse cortical neurons as an Alzheimer's disease model
expression of proteasome subunits in the streptavidin pulldown (NMP expression) (NMP [4]): significant decrease

biotin-epoxomicin
amplitude of bicuculline-induced calcium transients [2]: strongly and rapidly attenuated
